Measured values published in patent US12097173B2, “Volatile organic compound formulations having antimicrobial activity” (priority 2019, dated 2024).

Experiments:
Type in all cases: cell-based
Escherichia coli = assay: plate bioassay of volatile test mixtures, relative growth of streak; conditions: relative growth after 30 hr at 22° C.; esters with 1:1 v/v propanoic acid and isobutryic acid (7:2 v/v), 9 ul; acids 7 ul
Experimental: (§1) FIG. 1 illustrates a plate bioassay to determine the bioactivity of various esters when combined with a 1:1 mix of the two organic acids as per Table 2. The test organisms were as follows—Cercospora (dark-lower left bottom) then clockwise—Phytophthora, Verticillium, Sclerotinia, Pythium. Fusarium, Trichoderma, Rhizoctonia, and Aspergillus. The streaks were Saccharomyces (far right bottom) then Candida, E coli and Bacillus (left bottom). A=control plate, and B=plate with System 1 after incubation for 30 hr.
(§2) FIG. 9 depicts the biological activities of various test mixtures against a panel of test microbes. A small plug of each organism was placed in the periphery of the PDA plate. In the center well was placed the test solution in the plastic cup holder. A control plate (A) was also set up. After 30 hr the growth of the test organisms was compared to that of the control and the % inhibition was calculated. The (B) plate contained the test mixture. Measurements were made 30 hr after plate set up.
(§3) FIG. 1. Indicates how the assays were done to yield the data sets in Table 1. The various esters were combined with a 1:1 mixture of propanoic acid and isobutryic acid and these were added 7:2 V/V with the ester to be tested.
(§4) Shown in Table 1, are the inhibition and killing effects of propanoic acid, and isobutryic acid together and alone and with various esters. The tests were conducted over the course of 30 hr at 22° C. Measurements were made on appropriate controls and thus the percentage of inhibition calculations could be made on treatments vs the growth on a control organism (non-treated). The bacteria and yeast like organisms were evaluated on the basis of relative growth rates after 30 hr. Those highlighted areas on the table show those compounds (esters) having the most compatibility with propanoic and isobutryic acid 1:1 v/v mixtures with the appropriate esters at a 7:2 ratio—Systems 1 and 2 above. It is from this test that Systems 1 and 2 were discovered. The acids were added at […] individually and combination of the esters with the acids were added at the […] in the plate assay.
as §2, with “Tests were conducted as similarly described for Systems 1 and 2 above (FIG. 9) to ascertain” for “FIG. 9 depicts”

Bacillus subtilus = assay: as above; conditions: relative growth after 30 hr at 22° C.; esters with 1:1 v/v propanoic acid and isobutryic acid (7:2 v/v), 9 ul; acids 7 ul
Experimental: as §1, §2, §3, §4
as §2, with “Tests were conducted as similarly described for Systems 1 and 2 above (FIG. 9) to ascertain” for “FIG. 9 depicts”

Candida albicans = assay: as above; conditions: relative growth after 30 hr at 22° C.; esters with 1:1 v/v propanoic acid and isobutryic acid (7:2 v/v), 9 ul; acids 7 ul
Experimental: as §1, §2, §3, §4
as §2, with “Tests were conducted as similarly described for Systems 1 and 2 above (FIG. 9) to ascertain” for “FIG. 9 depicts”

Saccharomyces cerevicae = assay: as above; conditions: relative growth after 30 hr at 22° C.; esters with 1:1 v/v propanoic acid and isobutryic acid (7:2 v/v), 9 ul; acids 7 ul
Experimental: as §1, §2, §3, §4
as §2, with “Tests were conducted as similarly described for Systems 1 and 2 above (FIG. 9) to ascertain” for “FIG. 9 depicts”

Rhizoctonia solani = assay: plate bioassay of volatile test mixtures, growth inhibition; conditions: 30 hr at 22° C.; esters with 1:1 v/v propanoic acid and isobutryic acid (acids to ester 7:2 v/v), 9 ul; acids 7 ul
Experimental: as §1, §2, §3, §4
as §2, with “Tests were conducted as similarly described for Systems 1 and 2 above (FIG. 9) to ascertain” for “FIG. 9 depicts”

Cercospora beticola = assay: as above; conditions: 30 hr at 22° C.; esters with 1:1 v/v propanoic acid and isobutryic acid (acids to ester 7:2 v/v), 9 ul; acids 7 ul
Experimental: as §1, §2, §3, §4
as §2, with “Tests were conducted as similarly described for Systems 1 and 2 above (FIG. 9) to ascertain” for “FIG. 9 depicts”

Verticillium dahliae = assay: as above; conditions: 30 hr at 22° C.; esters with 1:1 v/v propanoic acid and isobutryic acid (acids to ester 7:2 v/v), 9 ul; acids 7 ul
Experimental: as §1, §2, §3, §4
as §2, with “Tests were conducted as similarly described for Systems 1 and 2 above (FIG. 9) to ascertain” for “FIG. 9 depicts”

Phytophthora cinnamomi = assay: as above; conditions: 30 hr at 22° C.; esters with 1:1 v/v propanoic acid and isobutryic acid (acids to ester 7:2 v/v), 9 ul; acids 7 ul
Experimental: as §1, §2, §3, §4
as §2, with “Tests were conducted as similarly described for Systems 1 and 2 above (FIG. 9) to ascertain” for “FIG. 9 depicts”

Pythium ultimum = assay: as above; conditions: 30 hr at 22° C.; esters with 1:1 v/v propanoic acid and isobutryic acid (acids to ester 7:2 v/v), 9 ul; acids 7 ul
Experimental: as §1, §2, §3, §4
as §2, with “Tests were conducted as similarly described for Systems 1 and 2 above (FIG. 9) to ascertain” for “FIG. 9 depicts”

Trichoderma viridae = assay: as above; conditions: 30 hr at 22° C.; esters with 1:1 v/v propanoic acid and isobutryic acid (acids to ester 7:2 v/v), 9 ul; acids 7 ul
Experimental: as §1, §2, §3, §4
as §2, with “Tests were conducted as similarly described for Systems 1 and 2 above (FIG. 9) to ascertain” for “FIG. 9 depicts”

Sclerotinia sclerotiorum = assay: as above; conditions: 30 hr at 22° C.; esters with 1:1 v/v propanoic acid and isobutryic acid (acids to ester 7:2 v/v), 9 ul; acids 7 ul
Experimental: as §1, §2, §3
The tests were conducted over the course of 30 hr at 22° C. Measurements were made on appropriate controls and thus the percentage of inhibition calculations could be made on treatments vs the growth on a control organism (non-treated). The bacteria and yeast like organisms were evaluated on the basis of relative growth rates after 30 hr. […] The acids were added at […] individually and combination of the esters with the acids were added at the […] in the plate assay.
as §2, with “Tests were conducted as similarly described for Systems 1 and 2 above (FIG. 9) to ascertain” for “FIG. 9 depicts”

Aspergillus fumigatus = assay: as above; conditions: 30 hr at 22° C.; esters with 1:1 v/v propanoic acid and isobutryic acid (acids to ester 7:2 v/v), 9 ul; acids 7 ul
Experimental: as §1, §3, §4

Fusarium subglutinans = assay: as above; conditions: 30 hr at 22° C.; esters with 1:1 v/v propanoic acid and isobutryic acid (acids to ester 7:2 v/v), 9 ul; acids 7 ul
Experimental: as §1, §3, §4

| SMILES | growth of Escherichia coli (Escherichia coli) | growth of Bacillus subtilus (Bacillus subtilus) | growth of Candida albicans (Candida albicans) | growth of Saccharomyces cerevicae (Saccharomyces cerevicae) | inhibition of Rhizoctonia solani (Rhizoctonia solani) [%] | inhibition of Cercospora beticola (Cercospora beticola) [%] | inhibition of Verticillium dahliae (Verticillium dahliae) [%] | inhibition of Phytophthora cinnamomi (Phytophthora cinnamomi) [%] | inhibition of Pythium ultimum (Pythium ultimum) [%] | inhibition of Trichoderma viridae (Trichoderma viridae) [%] | inhibition of Sclerotinia sclerotiorum (Sclerotinia sclerotiorum) [%] | inhibition of Aspergillus fumigatus (Aspergillus fumigatus) [%] | inhibition of Fusarium subglutinans (Fusarium subglutinans) [%] |
| --- | --- | --- | --- | --- | --- | --- | --- | --- | --- | --- | --- | --- | --- |
| CC(C)COC(=O)C(C)C [Isobutyl Isobutyrate] | Inhibited | Inhibited | Growth Observed | Growth Observed | 86 | 95 | 92 | 0 | 100 | 47 | 75 | 80 | 50 |
| CC(C)COC(=O)CC(C)C [Isobutyl Isovalerate] | Inhibited | Inhibited | Growth Observed | Growth Observed | 94 | 95 | 96 | 100 | 100 | 20 | 0 | 0 | 67 |
| CCC(=O)OCC(C)C [Isobutyl Propionate] | No Growth | No Growth | Growth Observed | Growth Observed | 100 | 100 | 88 | 33 | 100 | 40 | 80 | 80 | 67 |
| CC(C)C(=O)O [Isobutyric Acid, reference compound] | No Growth | No Growth | Growth Observed | Growth Observed | 86 | 95 | 90 | 100 | 100 | 27 | 40 | 90 | 67 |
| CC(C)OC(=O)C(C)C [Isopropyl Isobutyrate] | No Growth | No Growth | Growth Observed | Growth Observed | 43 | 95 | 96 | −33 | 100 | 20 | 30 | 0 | 33 |
| CCCOC(=O)C(C)C [Propyl Isobutyrate] | Inhibited | Inhibited | Growth Observed | Growth Observed | 97 | 95 | 88 | 87 | 98 | 33 | 40 | 50 | 50 |
